Data: patent publication US8846719B2, “Isoxazolo-pyridine derivatives” (Roche Palo Alto LLC, priority 2007, dated 2014)

Target: human GABA A receptor α5β3γ2 (Homo sapiens (Human), UniProt P18507+P31644)
Assay: [3H]flumazenil competition binding assay, human GABA A α5β3γ2 receptors expressed in HEK293 cells
Details: human receptor; displacement of [3H]flumazenil (0.5 nM); means of two determinations; read-out: hKi GABAAa5
How it was run: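 Competition for [3H]flumazenil binding on membranes of HEK293 cells transiently transfected with human α5β3γ2 receptors, in Krebs-tris buffer pH 7.5.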

Row | SMILES | Ki
1 | Cc1onc(-c2ccncc2)c1COc1ccc(C(=O)N2CCSCC2)cn1 [Example 152, [6-(5-Methyl-3-pyridin-4-yl-isoxazol-4-ylmethoxy)-pyridin-3-yl]-thiomorpholin-4-yl-methanone] | 0.0397 µM
2 | Cc1onc(-c2ccncc2)c1COc1ccc(C(=O)N2CCS(=O)(=O)CC2)cn1 [Example 153, (1,1-Dioxo-1λ6-thiomorpholin-4-yl)-[6-(5-methyl-3-pyridin-4-yl-isoxazol-4-ylmethoxy)-pyridin-3-yl]-methanone] | 0.0657 µM
3 | COC(=O)c1ccc(OCc2c(-c3cccnc3)noc2C)nc1 [Example 154, 6-(5-Methyl-3-pyridin-3-yl-isoxazol-4-ylmethoxy)-nicotinic acid methyl ester] | 0.0532 µM
4 | Cc1onc(-c2cccnc2)c1COc1ccc(C(=O)NCC(F)(F)F)cn1 [Example 155, 6-(5-Methyl-3-pyridin-3-yl-isoxazol-4-ylmethoxy)-N-(2,2,2-trifluoro-ethyl)-nicotinamide] | 0.024 µM
5 | Cc1onc(-c2cccnc2)c1COc1ccc(C(=O)NCC2CC2)cn1 [Example 156, N-Cyclopropylmethyl-6-(5-methyl-3-pyridin-3-yl-isoxazol-4-ylmethoxy)-nicotinamide] | 0.0298 µM
6 | Cc1onc(-c2cccnc2)c1COc1ccc(C(=O)NC2CC2)cn1 [Example 157, N-Cyclopropyl-6-(5-methyl-3-pyridin-3-yl-isoxazol-4-ylmethoxy)-nicotinamide] | 0.0263 µM
7 | Cc1onc(-c2cccnc2)c1COc1ccc(C(=O)NC(C)C)cn1 [Example 158, N-Isopropyl-6-(5-methyl-3-pyridin-3-yl-isoxazol-4-ylmethoxy)-nicotinamide] | 0.0317 µM
8 | Cc1onc(-c2cccnc2)c1COc1ccc(C(=O)NC2CCOCC2)cn1 [Example 159, 6-(5-Methyl-3-pyridin-3-yl-isoxazol-4-ylmethoxy)-N-(tetrahydro-pyran-4-yl)-nicotinamide] | 0.0279 µM
9 | Cc1onc(-c2ccccc2)c1CNc1ccccn1 [Example 160, (5-Methyl-3-phenyl-isoxazol-4-ylmethyl)-pyridin-2-yl-amine] | 0.0873 µM
10 | COC(=O)c1ccc(NCc2c(-c3ccccc3)noc2C)nc1 [Example 161, 6-[(5-Methyl-3-phenyl-isoxazol-4-ylmethyl)-amino]-nicotinic acid methyl ester] | 0.0274 µM
11 | Cc1onc(-c2ccccc2)c1CNc1ccc(C(=O)NCCO)cn1 [Example 162, N-(2-Hydroxy-ethyl)-6-[(5-methyl-3-phenyl-isoxazol-4-ylmethyl)-amino]-nicotinamide] | 0.0104 µM
12 | Cc1onc(-c2ccccc2)c1CNc1ccc(C(=O)NCCN2CCCC2=O)cn1 [Example 163, 6-[(5-Methyl-3-phenyl-isoxazol-4-ylmethyl)-amino]-N-[2-(2-oxo-pyrrolidin-1-yl)-ethyl]-nicotinamide] | 0.0373 µM
13 | Cc1onc(-c2ccccc2)c1CNc1ccc(C(=O)NC(C)C)cn1 [Example 164, N-Isopropyl-6-[(5-methyl-3-phenyl-isoxazol-4-ylmethyl)-amino]-nicotinamide] | 0.0059 µM
14 | Cc1onc(-c2ccccc2)c1CNc1ccc(C(=O)NC2CC2)cn1 [Example 165, N-Cyclopropyl-6-[(5-methyl-3-phenyl-isoxazol-4-ylmethyl)-amino]-nicotinamide] | 0.0106 µM
15 | Cc1onc(-c2ccccc2)c1CNc1ccc(C(=O)NC2CCOCC2)cn1 [Example 166, 6-[(5-Methyl-3-phenyl-isoxazol-4-ylmethyl)-amino]-N-(tetrahydro-pyran-4-yl)-nicotinamide] | 0.0088 µM
16 | COC(=O)c1ccc(NCc2c(-c3cccc(F)c3)noc2C)nc1 [Example 167, 6-{[3-(3-Fluoro-phenyl)-5-methyl-isoxazol-4-ylmethyl]-amino}-nicotinic acid methyl ester] | 0.0693 µM
17 | Cc1onc(-c2cccc(F)c2)c1CNc1ccc(C(=O)NCC(F)(F)F)cn1 [Example 168, 6-{[3-(3-Fluoro-phenyl)-5-methyl-isoxazol-4-ylmethyl]-amino}-N-(2,2,2-trifluoro-ethyl)-nicotinamide] | 0.0178 µM
18 | Cc1onc(-c2cccc(F)c2)c1CNc1ccc(C(=O)NC(C)C)cn1 [Example 169, 6-{[3-(3-Fluoro-phenyl)-5-methyl-isoxazol-4-ylmethyl]-amino}-N-isopropyl-nicotinamide] | 0.0154 µM
19 | Cc1onc(-c2cccc(F)c2)c1CNc1ccc(C(=O)NC2CC2)cn1 [Example 170, N-Cyclopropyl-6-{[3-(3-fluoro-phenyl)-5-methyl-isoxazol-4-ylmethyl]-amino}-nicotinamide] | 0.0194 µM
20 | Cc1onc(-c2cccc(F)c2)c1CNc1ccc(C(=O)NC2CCOCC2)cn1 [Example 171, 6-{[3-(3-Fluoro-phenyl)-5-methyl-isoxazol-4-ylmethyl]-amino}-N-(tetrahydro-pyran-4-yl)-nicotinamide] | 0.0149 µM
21 | COC(=O)c1ccc(NCc2c(-c3ccc(F)cc3)noc2C)nc1 [Example 172, 6-{[3-(4-Fluoro-phenyl)-5-methyl-isoxazol-4-ylmethyl]-amino}-nicotinic acid methyl ester] | 0.0259 µM

Row | SMILES | Ki
22 | Cc1onc(-c2ccc(F)cc2)c1CNc1ccc(C(=O)NCC(F)(F)F)cn1 [Example 173, 6-{[3-(4-Fluoro-phenyl)-5-methyl-isoxazol-4-ylmethyl]-amino}-N-(2,2,2-trifluoro-ethyl)-nicotinamide] | 0.0059 µM
23 | Cc1onc(-c2ccc(F)cc2)c1CNc1ccc(C(=O)NCC2CC2)cn1 [Example 174, N-Cyclopropylmethyl-6-{[3-(4-fluoro-phenyl)-5-methyl-isoxazol-4-ylmethyl]-amino}-nicotinamide] | 0.0076 µM
24 | Cc1onc(-c2ccc(F)cc2)c1CNc1ccc(C(=O)NC(C)C)cn1 [Example 175, 6-{[3-(4-Fluoro-phenyl)-5-methyl-isoxazol-4-ylmethyl]-amino}-N-isopropyl-nicotinamide] | 0.0037 µM
25 | Cc1onc(-c2ccc(F)cc2)c1CNc1ccc(C(=O)NC2CC2)cn1 [Example 176, N-Cyclopropyl-6-{[3-(4-fluoro-phenyl)-5-methyl-isoxazol-4-ylmethyl]-amino}-nicotinamide] | 0.0074 µM
26 | Cc1onc(-c2ccc(F)cc2)c1CNc1ccc(C(=O)NC2CCOCC2)cn1 [Example 177, 6-{[3-(4-Fluoro-phenyl)-5-methyl-isoxazol-4-ylmethyl]-amino}-N-(tetrahydro-pyran-4-yl)-nicotinamide] | 0.0065 µM
27 | Cc1onc(-c2ccc(F)cc2)c1CNc1ccc(C(=O)N2CCS(=O)(=O)CC2)cn1 [Example 178, (1,1-Dioxo-1,6-thiomorpholin-4-yl)-(6-{[3-(4-fluoro-phenyl)-5-methyl-isoxazol-4-ylmethyl]-amino}-pyridin-3-yl)-methanone] | 0.0292 µM
28 | CC(=O)Nc1ccc(OCc2c(-c3ccccc3)noc2C)nc1 [Example 179, N-[6-(5-Methyl-3-phenyl-isoxazol-4-ylmethoxy)-pyridin-3-yl]-acetamide] | 0.0094 µM
29 | COC(=O)C(=O)Nc1ccc(OCc2c(-c3ccccc3)noc2C)nc1 [Example 180, N-[6-(5-Methyl-3-phenyl-isoxazol-4-ylmethoxy)-pyridin-3-yl]-oxalamic acid methyl ester] | 0.0072 µM
30 | Cc1onc(-c2ccccc2)c1COc1ccc(NC(=O)C(C)C)cn1 [Example 181, N-[6-(5-Methyl-3-phenyl-isoxazol-4-ylmethoxy)-pyridin-3-yl]-isobutyramide] | 0.0192 µM
31 | Cc1onc(-c2ccccc2)c1COc1ccc(NC(=O)C2CC2)cn1 [Example 182, Cyclopropanecarboxylic acid [6-(5-methyl-3-phenyl-isoxazol-4-ylmethoxy)-pyridin-3-yl]-amide] | 0.0101 µM
32 | Cc1onc(-c2ccccc2)c1COc1ccc(C(=O)NC(C)(C)CO)cn1 [Example 183, N-(2-Hydroxy-1,1-dimethyl-ethyl)-6-(5-methyl-3-phenyl-isoxazol-4-ylmethoxy)-nicotinamide] | 0.01 µM
33 | COCCNC(=O)c1ccc(OCc2c(-c3ccccc3)noc2C)nc1 [Example 184, N-(2-Methoxy-ethyl)-6-(5-methyl-3-phenyl-isoxazol-4-ylmethoxy)-nicotinamide] | 0.0078 µM
34 | Cc1onc(-c2ccccc2)c1COc1ccc(C(=O)NC2CCS(=O)(=O)C2)cn1 (centres unmarked) [Example 185, N-(1,1-Dioxo-tetrahydro-thiophen-3-yl)-6-(5-methyl-3-phenyl-isoxazol-4-ylmethoxy)-nicotinamide] | 0.0045 µM
35 | Cc1onc(-c2ccccc2)c1COc1ccc(C(=O)NCC(O)C(F)(F)F)cn1 (centres unmarked) [Example 186, 6-(5-Methyl-3-phenyl-isoxazol-4-ylmethoxy)-N-(3,3,3-trifluoro-2-hydroxy-propyl)-nicotinamide] | 0.0023 µM
36 | Cc1onc(-c2ccccc2)c1COc1ccc(C(=O)N2CCC(O)CC2)cn1 [Example 187, (4-Hydroxy-piperidin-1-yl)-[6-(5-methyl-3-phenyl-isoxazol-4-ylmethoxy)-pyridin-3-yl]-methanone] | 0.0734 µM
37 | Cc1onc(-c2ccccc2)c1COc1ccc(C(=O)NCC(C)(C)CO)cn1 [Example 188, N-(3-Hydroxy-2,2-dimethyl-propyl)-6-(5-methyl-3-phenyl-isoxazol-4-ylmethoxy)-nicotinamide] | 0.0077 µM
38 | Cc1onc(-c2ccccc2)c1COc1ccc(C(=O)NCCOC(C)C)cn1 [Example 189, N-(2-Isopropoxy-ethyl)-6-(5-methyl-3-phenyl-isoxazol-4-ylmethoxy)-nicotinamide] | 0.0413 µM
39 | Cc1onc(-c2ccccc2)c1COc1ccc(C(=O)NC(C)CO)cn1 (centres unmarked) [Example 190, N-(2-Hydroxy-1-methyl-ethyl)-6-(5-methyl-3-phenyl-isoxazol-4-ylmethoxy)-nicotinamide] | 0.001 µM
40 | Cc1onc(-c2ccccc2)c1COc1ccc(C(=O)N2CC(O)C2)cn1 [Example 191, (3-Hydroxy-azetidin-1-yl)-[6-(5-methyl-3-phenyl-isoxazol-4-ylmethoxy)-pyridin-3-yl]-methanone] | 0.005 µM
41 | Cc1onc(-c2ccccc2)c1COc1ccc(C(=O)NC2CCCCC2O)cn1 (centres unmarked) [Example 192, N-(2-Hydroxy-cyclohexyl)-6-(5-methyl-3-phenyl-isoxazol-4-ylmethoxy)-nicotinamide] | 0.0029 µM
